The values that follow come from patent US6897199B2, “Pharmaceutically acceptable salts of phenoxazine and phenothiazine compounds” (Dr. Reddy's Laboratories Ltd., priority 2001, dated 2005).

For assay [1], the system named is hypercholesterolemic rat models. In words: Plasma triglyceride and cholesterol lowering activity in hypercholesterolemic rat models. The format is in vivo, Male Sprague Dawley rats. Particulars: dose 10 mg/kg orally for 3 days. How it is done: b) Plasma triglyceride and Cholesterol Lowering Activity in Hypercholesterolemic Rat Models
Male Sprague Dawley rats (NIN stock) were bred in DRF animal house. Animals were maintained under 12 hour light and dark cycle at 25±1° C. Rats of 180-200 gram body weight range were used for the experiment. Animals are made hypercholesterolemic by feeding 2% cholesterol and 1% sodium cholate mixed with standard laboratory chow [National Institute of Nutrition (NIN), Hyderabad, India] for 6 days. Throughout the experimental period the animals are maintained on the same diet (Petit, D., Bonnefis, M. T., Rey, C and Infante, R. Effects of ciprofibrate on liver lipids and lipoprotein synthesis in normo- and hyperlipidemic rats. Atherosclerosis. 1988.74: 215-225).
The test compounds were administered orally at a dose 0.1 to 30 mg/kg/day for 3 days. Control group is treated with vehicle alone (0.25% Carboxymethylcellulose; dose 10 ml/kg).
The blood samples were collected in fed state 1 hour after drug administration on 0 and 3 day of compound treatment. The blood was collected from the retro-orbital sinus through heparinised capillary in EDTA containing tubes. After centrifugation, plasma sample is separated for total cholesterol, HDL and triglyceride estimations. Measurement of plasma triglyceride (TG), total cholesterol (TC) and HDL are done using commercial kits (Dr. Reddy's Laboratory, Diagnostic Division, India). LDL and VLDL cholesterol were calculated from the data obtained for total cholesterol, HDL and triglyceride. The reduction of various parameters examined are calculated according to the formula given below.
Formulae for Calculation: • 1. Percent reduction in Blood sugar/triglycerides/total cholesterol were calculated according to the formula: [formula] • OC=Zero day control group value • OT=Zero day treated group value • TC=Test day control group value • TT=Test day treated group value • 2. LDL and VLDL cholesterol levels were calculated according to the formula: [formula] VLDL cholesterol in mg/dl=[Total cholesterol−HDL cholesterol−LDL cholesterol]mg/dl.

The target in a further assay is T1, hPPARα (Homo sapiens, UniProt Q07869).
T1 sequence (Q07869 239-466 limits assumed): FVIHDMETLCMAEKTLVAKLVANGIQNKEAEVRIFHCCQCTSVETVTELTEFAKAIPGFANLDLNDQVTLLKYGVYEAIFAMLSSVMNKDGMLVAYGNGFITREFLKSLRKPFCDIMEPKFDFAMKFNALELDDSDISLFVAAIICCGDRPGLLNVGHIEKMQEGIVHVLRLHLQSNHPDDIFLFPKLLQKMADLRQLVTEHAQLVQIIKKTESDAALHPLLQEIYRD
Particulars: compound concentration 50 μM; luciferase activity, HEK-293 cells. As for the experimental part:
a) Determination of hPPARα Activity
Ligand binding domain of hPPARα was fused to DNA binding domain of Yeast transcription factor GAL4 in eucaryotic expression vector. Using superfect (Qiagen, Germany) as transfecting reagent HEK-293 cells were transfected with this plasmid and a reporter plasmid harboring the luciferase gene driven by a GAL4 specific promoter. Compound was added at different concentrations after 42 hrs of transfection and incubated overnight.

Counter-ions that a name gives are not always drawn.

As for `CCO[C@@H](Cc1ccc(OCCN2c3ccccc3Oc3ccccc32)cc1)C(=O)O` [Example 3, (−)-3-[4-[2-(Phenoxazin-10-yl)ethoxy]phenyl]-2-ethoxypropanoic acid metformin salt], in assay [1] (LDL cholesterol calculated from TC, HDL and TG), the LDL is listed as 46. For the same compound, the VLDL in assay [1] (VLDL cholesterol calculated from TC, HDL and TG) is recorded as 82. The compound further returned an HDL in assay [1] (plasma HDL) of 64. The compound further came in with a TC in assay [1] (plasma total cholesterol, percent reduction by formula of b285) of 82. This compound also showed a TG in assay [1] (plasma triglyceride, percent reduction by formula of b285) of 47.

On hPPARα, “(−)-3-[4-[2-(Phenoxazin-10-yl)ethoxy]phenyl]-2-ethoxypropanoic acid phenylglycinol salt [Example 12]” showed a PPARα of 3.7.
